The text below walks through data of patent US7772192B2, “Compositions and methods for treatment of disease with acetylated disaccharides” (The Regents of the University of California, priority 2003, dated 2010).

Data set [1] concerns cell-surface sLe^X of LS180 cells. The data set can be described thus: Flow cytometry of cell-surface sLe^X (CSLEX-1). The data set is classed as cell-based, human. The settings on record: 50 μM. How it is done: (§1) Peracetylated forms of GlcNAcβ1,3Galβ-O-naphthalenemethanol (AcGnG-NM) and Galβ1,3Galβ-O-naphthalenemethanol (AcGG-NM) were prepared as described. Sarkar, et al., Carbohydr. Res., 329, 287-300, 2000. The compounds were dissolved in dimethylsulfoxide (DMSO) and added to growth medium to achieve the concentrations indicated in the figures. The supplemented medium was then exchanged for the medium in established cultures of cells in order to avoid lysis caused by adding concentrated DMSO directly to the plates. The final concentration of DMSO was adjusted to ≦0.5% (v/v). After the specified number of days, the cells were harvested with 2 mM EDTA in PBS (20 min) and used for the following experiments.
(§2) Cell Sorting. To detect the presence or absence of the relevant carbohydrate determinants, cells were stained with CSLEX-1 (anti-sLe^X, 5 μg/mL, Becton-Dickinson) or CA-19-9 ([…], 14.5 μg/mL, Chemicon) and analyzed by flow cytometry (FACScan Becton-Dickinson, Franklin Lakes, N.J.). […]
(§3) Treatment of LS180 cells with AcGnG-NM reduces cell-surface sLe^X, but not sLe^a. […] LS180 cells were grown in the presence of 50 μM AcGnG-NM, harvested with EDTA, stained with monoclonal antibodies (CSLEX-1, anti-sLe^X and CA19-9, anti-sLe^a) as indicated and analyzed by flow cytometry (Materials and Methods). […]

Data set [2] deals with cell-surface sLe^a of LS180 cells. The data set can be described thus: Flow cytometry of cell-surface sLe^a (CA19-9). The data set is classed as cell-based, human. The note with it: 50 μM. The method, then: as §1, §2, §3
The test system of a further data set is LS180 cells. The data set can be described thus: Toxicity and growth of LS180 cells in culture. The data set is classed as cell-based, human. The method, then: Adhesion to selectins is altered in disaccharide-treated tumor cells. Treatment of LS180 cells with AcGnG-NM was not toxic to the cells up to 100 μM based on growth curves and exclusion of Trypan blue. […] LS180 colon carcinoma cells were “panned” onto wells precoated with recombinant E- or P-selectin as indicated. Open circles, adhesion to E-selectin; filled circles, adhesion to P-selectin. The extent of adhesion was normalized to the value obtained for cells not treated with disaccharide. […] Each experimental condition was done in quadruplicate and the average values±standard errors are given. […] Adhesion to P-selectin was more sensitive to the inhibitor than adhesion to E-selectin under these conditions. The inhibitory effect of AcGnG-NM was specific since incubation of cells with acetylated Galβ1,3Galβ-O-NM (AcGG-NM) had no effect on expression of sLe^X or adhesion to either selectin conjugate See FIG. 3. The maximum extent of inhibition approached the values obtained when the cells were pre-treated with sialidase or blocking antibody to the corresponding selectin.
A final consideration is the ability of selectins to participate in “arresting” newly circulating tumor cells in organ capillary beds. Entrapment of emboli may have important consequences on the eventual uptake and growth of tumor “seeds” into large metastatic tumor foci. […]

The nature of the next data set: Blood cell counts. It counts as in vivo.

Turning to “GlcNAcβ1,3Galβ-O-naphthalenemethanol [AcGnG-NM]”, in data set [1], the “cell-surface sLe^X” value is “significant inhibition”. In addition, the “cell-surface sLe^a” value in data set [2] is on record as “no effect”. In addition, the “LS180 growth in culture” value in the data set with LS180 cells (up to 50 μM) was “minimal effects”. Also, the “toxicity to the cells” value in the data set with LS180 cells (up to 100 μM, growth curves and exclusion of Trypan blue) is recorded as “not toxic”. The “levels of blood cell components” value in the data set “Blood cell counts” (in vivo) is listed as “not affected”. Besides, in “Blood cell counts” (n = 13), the Lymphocytes is on record as 6.1 ± 2.1 K/μL, the Neutrophils is recorded as 1.5 ± 0.5 K/μL, the Platelets worked out at 1031 ± 174 K/μL and the “Red Blood Cells” value was found to be 10.5 ± 0.9 M/μL. Moreover, the “Total Leukocytes” value in “Blood cell counts” (n = 13) was 7.8 ± 2.6 K/μL.
